System: primary human RPE cells
Assay: UOS-induced cell death in primary human RPE cells (Hoechst staining)
Assay type: cell-based
Settings: for UOS-induced primary human RPE cell death: UOS for 16 h + 32:6n3 or 34:6n3 (FIG. 8C); for cell death (apoptosis): UOS with H2O2 (800 μM), 16 h, VLC-PUFAs 3 μM each, NPD1 200 nM, UOS alone 50% cell death
Protocol: Exposure of RPE cells to UOS and VLC-PUFA: For cell viability assay experiments hRPE cells were treated concomitantly with NPD1 (200 nM), 32-6, 34-6 (3 μM each) fatty acids or both 32-6 and 34-6 simultaneously. The hRPE medium was supplemented with 3 μM of 32-6 and 34-6 for the entire duration of the experiment. 15 lox-1 inhibitor (10 μM) was added to the cells 1 hour prior the OS induction and kept throughout the experiment. Cells were fixed with 4% PFA and stained with Hoescht.
To assess cell death, hRPE and ARPE-19 cells were fixed with methanol for 15 mins, washed with 1× PBS then loaded with 2 μM Hoechst dissolved in a Locke's solution (Promega) and incubated for another 15 mins before imaging. Cells were then viewed by using a Zeiss LSM 510 confocal microscope under UV fluorescence. Images were recorded and cell apoptosis was assessed by using an automated unbiased method.
To test the efficacy of 32:6n3 and 34:6n3 VLC-PUFAs to modulate human RPE cell homeostasis and survival rates, human RPE cells undergoing UOS were incubated with both VLC-PUFAs (3 μM each) and NPD1 (200 nM) 16 h. The addition of H2O2 (800 μM) induced apoptosis (50% cell death).
hRPE cells, formerly serum deprived for 12 h, were incubated with the 15 lipoxygenase 1 (15-LOX-1) inhibitor (PD146176) (10 μM for 1 h), then bathed with 600 μM H2O2/TNF-α in conjunction with a mixture of 32:6n3 and 34:6n3 (3 μM each) for 16 h. The 15-LOX-1 inhibitor sensitizes cells; therefore, a lower concentration of H2O2 than in the cytoprotection experiment was used.

Row | Compound | UOS-induced primary human RPE cell death | cell death (apoptosis) [%]
1 | CC/C=C\C/C=C\C/C=C\C/C=C\C/C=C\C/C=C\CCCCCCCCCCCCC(=O)O [32:6n3, (14Z,17Z,20Z,23Z,26Z,29Z)-dotriaconta-14,17,20,23,26,29-hexaenoic acid] | cell death was prevented | 4
2 | CC/C=C\C/C=C\C/C=C\C/C=C\C/C=C\C/C=C\CCCCCCCCCCCCCCC(=O)O [34:6n3, (16Z,19Z,22Z,25Z,28Z,31Z)-tetratriaconta-16,19,22,25,28,31-hexaenoic acid] | cell death was prevented | 18

— patent publication US20220226270A1, “VERY-LONG-CHAIN POLYUNSATURATED FATTY ACIDS, ELOVANOID HYDROXYLATED DERIVATIVES, AND METHODS OF USE” (Board of Supervisors of Louisiana State University and …, priority 2019, published 2022)
